Experimental data from patent US10266549B2, “ULK1 inhibitors and methods using same” (SALK INSTITUTE FOR BIOLOGICAL STUDIES, priority 2014, dated 2019).

Biological target: ULK1 (Homo sapiens (Human), UniProt O75385)
Assay: ULK1 inhibition assay (Table 1)
Assay type: biochemical
Conditions: * = tested as a mixture of regioisomers

ULK1, sequence (O75385 whole entry, species assumed): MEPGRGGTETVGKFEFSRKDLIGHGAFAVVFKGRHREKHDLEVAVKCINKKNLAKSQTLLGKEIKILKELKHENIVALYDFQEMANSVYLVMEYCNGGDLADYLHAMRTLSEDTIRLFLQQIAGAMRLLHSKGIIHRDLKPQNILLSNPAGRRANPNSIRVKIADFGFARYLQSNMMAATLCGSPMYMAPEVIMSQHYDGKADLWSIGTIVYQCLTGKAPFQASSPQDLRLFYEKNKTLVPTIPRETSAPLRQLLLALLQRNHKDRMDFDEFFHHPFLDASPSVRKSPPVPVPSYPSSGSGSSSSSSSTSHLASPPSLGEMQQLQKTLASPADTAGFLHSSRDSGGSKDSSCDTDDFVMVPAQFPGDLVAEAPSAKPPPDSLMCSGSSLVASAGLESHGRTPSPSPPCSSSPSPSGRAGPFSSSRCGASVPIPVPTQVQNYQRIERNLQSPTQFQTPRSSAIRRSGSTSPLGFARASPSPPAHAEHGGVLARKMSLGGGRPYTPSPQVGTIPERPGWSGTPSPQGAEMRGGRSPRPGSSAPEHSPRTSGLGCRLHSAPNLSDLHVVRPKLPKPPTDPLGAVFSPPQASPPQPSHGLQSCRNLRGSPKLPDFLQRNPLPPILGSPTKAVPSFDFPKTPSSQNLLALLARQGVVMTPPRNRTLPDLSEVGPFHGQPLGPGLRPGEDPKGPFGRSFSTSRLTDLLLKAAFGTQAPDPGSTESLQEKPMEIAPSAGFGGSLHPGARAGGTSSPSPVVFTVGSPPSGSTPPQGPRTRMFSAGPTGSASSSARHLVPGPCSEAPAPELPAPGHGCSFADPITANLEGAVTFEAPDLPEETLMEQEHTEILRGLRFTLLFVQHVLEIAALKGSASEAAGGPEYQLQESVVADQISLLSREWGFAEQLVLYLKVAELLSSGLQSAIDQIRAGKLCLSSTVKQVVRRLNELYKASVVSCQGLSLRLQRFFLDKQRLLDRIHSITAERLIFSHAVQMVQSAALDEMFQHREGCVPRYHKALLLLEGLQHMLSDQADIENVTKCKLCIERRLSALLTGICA

Which IC50 does the source give for `O=C1CCc2cc(Nc3nc(NC4CCC4)ncc3C(F)(F)F)ccc2N1` [150b, 6-((2-(cyclobutylamino)-5-(trifluoromethyl)pyrimidin-4-yl)amino)-3,4-dihydroquinolin-2(1H)-one] here?
The IC50 was under 200 nM.

Which IC50 does the source give for `O=C1CCc2cc(Nc3ncc(C(F)(F)F)c(Nc4ccc5c(c4)OC(F)(F)O5)n3)ccc2N1` [178a, 6-((4-((2,2-difluorobenzo[d][1,3]dioxol-5-yl)amino)-5-(trifluoromethyl)pyrimidin-2-yl)amino)-3,4-dihydroquinolin-2(1H)-one] here?
The IC50 was under 200 nM.

With `FC(F)(F)c1cnc(Nc2ccc3c(c2)OCCO3)nc1NC1CC1` [158a, N^4-cyclopropyl-N^2-(2,3-dihydrobenzo[b][1,4]dioxin-6-yl)-5-(trifluoromethyl)pyrimidine-2,4-diamine] as the compound, how does the IC50 read?
The IC50 was under 200 nM.

How did the IC50 turn out when `COCCNc1nc(Nc2cnc3[nH]ccc3c2)ncc1C(F)(F)F` [compound 179, N4-(2-methoxyethyl)-N2-(1H-pyrrolo[2,3-b]pyridin-5-yl)-5-(trifluoromethyl)pyrimidine-2,4-diamine] was run?
Its IC50 is 200 to 2000 nM.

For `COc1cc(Nc2ncc(C(F)(F)F)c(NCc3cccc(S(C)(=O)=O)c3)n2)cc(OC)c1OC` [compound 31, N^4-(3-(Methylsulfonyl)benzyl)-5-(trifluoromethyl)-N^2-(3,4,5-trimethoxyphenyl)pyrimidine-2,4-diamine], which IC50 is on record?
Its IC50 is under 200 nM.

Which IC50 does the source give for `CNC(=O)c1ccccc1Nc1nc(Nc2ccc(N3CCOCC3)cc2OC)ncc1Cl` [compound 12, 2-(5-Chloro-2-(2-methoxy-4-morpholinophenylamino)pyrimidin-4-ylamino)-N-methylbenzamide] here?
Its IC50 is under 200 nM.

`FC(F)(F)c1cnc(NC2CCC2)nc1Nc1ccc2c(c1)OCO2` [168a, N^4-(benzo[d][1,3]dioxol-5-yl)-N^2-cyclobutyl-5-(trifluoromethyl)pyrimidine-2,4-diamine] was tested. Which IC50 did it give?
The IC50 was under 200 nM.

With `O=C1CCc2cc(Nc3nc(NC4Cc5ccccc5C4)ncc3C(F)(F)F)ccc2N1` [130b, 6-((2-((2,3-dihydro-1H-inden-2-yl)amino)-5-(trifluoromethyl)pyrimidin-4-yl)amino)-3,4-dihydroquinolin-2(1H)-one] as the compound, how does the IC50 read?
The IC50 was over 2000 nM.

How did the IC50 turn out when `CSc1ccccc1Nc1ncc(C(F)(F)F)c(Nc2ccccc2SC)n1` [116b, N^2,N^4-bis(2-(methylthio)phenyl)-5-(trifluoromethyl)pyrimidine-2,4-diamine] was run?
Its IC50 is over 2000 nM.

For `CS(=O)(=O)c1cccc(CNc2nc(Nc3ccc4c(c3)CCC(=O)N4)ncc2F)c1` [compound 56, 6-((5-Fluoro-4-((3-(methylsulfonyl)benzyl)amino)pyrimidin-2-yl)amino)-3,4-dihydroquinolin-2(1H)-one], which IC50 is on record?
Its IC50 is over 2000 nM.

For `Oc1nc(Nc2ccc(Cl)c(Cl)c2)ncc1C(F)(F)F` [108b, 2-((3,4-dichlorophenyl)amino)-5-(trifluoromethyl)pyrimidin-4-ol], which IC50 is on record?
Its IC50 is over 2000 nM.

With `CNC(=O)c1ccccc1Nc1nc(Nc2ccc(N3CCOCC3)cc2OC)ncc1C(F)(F)F` [compound 39, 2-(2-(2-Methoxy-4-morpholinophenylamino)-5-(trifluoromethyl)pyrimidin-4-ylamino)-N-methylbenzamide] as the compound, how does the IC50 read?
The IC50 was under 200 nM.

With `CNC(=O)c1ccccc1Oc1nc(Nc2ccc(OC)cc2)ncc1C(F)(F)F` [105a, 2-((2-((4-methoxyphenyl)amino)-5-(trifluoromethyl)pyrimidin-4-yl)oxy)-N-methylbenzamide] as the compound, how does the IC50 read?
The IC50 was over 2000 nM.

`CNC(=O)c1ccccc1Nc1nc(Nc2ccc3c(c2)CCC(=O)N3)ncc1-c1ccccc1` [compound 89, N-Methyl-2-((2-((2-oxo-1,2,3,4-tetrahydroquinolin-6-yl)amino)-5-phenylpyrimidin-4-yl)amino)benzamide] was tested. Which IC50 did it give?
Its IC50 is under 200 nM.

With `O=C1CCc2cc(Nc3ncc(C(F)(F)F)c(-c4ccccc4)n3)ccc2N1` [compound 72, 6-(4-Phenyl-5-(trifluoromethyl)pyrimidin-2-ylamino)-3,4-dihydroquinolin-2(1H)-one] as the compound, how does the IC50 read?
Its IC50 is over 2000 nM.

For `COc1ccc(C)c(Nc2ncc(Br)c(Nc3ccccn3)n2)c1` [compound 26, 5-Bromo-N^2-(5-methoxy-2-methylphenyl)-N^4-(pyridin-2-yl) pyrimidine-2,4-diamine], which IC50 is on record?
The IC50 was 200 to 2000 nM.
